Results from a melting point compilation (Tetko et al.; mined from patent text by program, amines drawn as free bases though some values may be those of a salt).

Row | SMILES | melting point [°C]
1 | Cc1cccc2[nH]c(Nc3ccc(CC(=O)O)cc3)nc12 | 385 to 387
2 | Cc1noc(NS(=O)(=O)c2ccc(Nc3ccc(N)cc3N)cc2)c1C | 181 to 183
3 | CC(=O)NCC(=O)N1CC1C#N (configuration not stated) | 102 to 104
4 | CCNC(=O)Nc1nc2cc(-c3cccnc3)cc(OCCN(C)C)n2n1 | 200 to 202
5 | CC(C)(C)OC(=O)CCOCCCc1cccc(-c2nc(=O)c3ccccc3s2)n1 | 71 to 71.9
6 | CC(C)(C)C=C[C@H](O)c1ccc(C(F)(F)F)cc1 | 30 to 32
7 | O=c1[nH]c2cccnc2n1-c1ccccc1F | 195
8 | CCN(CC)CCNC(=O)Cn1cc(-c2ccccc2)c(-c2ccccc2)n1 | 80 to 83
9 | COC(=O)C(Cc1ccc(OCCN(C)c2nc3ccccc3o2)cc1)OCC(=O)O (configuration not stated) | 154 to 155
10 | CS(=O)(=O)Nc1c(-c2ccccc2)c(=O)[nH]c2cc(Cl)ccc12 | 222 to 224
11 | CSc1ccn2nc(S(=O)(=O)Nc3c(Cl)cccc3Cl)nc2n1 | 239 to 243
12 | OC1CCN(c2cc3nc(S)[nH]c3cc2F)CC1 | 268 to 269
13 | C[C@@H](n1ncn(-c2ccc(-n3ncn(-c4ccc(OCC(F)(F)C(F)F)cc4)c3=O)cc2)c1=O)[C@@]1(c2ccc(F)cc2F)CO1 | 181 to 183
14 | Oc1ccc(-c2c3ccccc3c(Cl)c3sc4ccccc4c23)cc1 | 193 to 195
15 | COc1cc(Nc2c(C#N)cnc3cc(-c4ccc(C(=O)O)cc4)sc23)c(Cl)cc1Cl | > 300
16 | CCOC(COc1ccc(Cl)c2cccnc12)OCC | 51 to 53
17 | CN1C(=O)N(CC(CS(=O)(=O)c2ccc(Oc3ccc(C(F)(F)F)cc3)cc2)N(O)C=O)C(=O)C1(C)C (configuration not stated) | 141 to 143
18 | COc1cc(I)c(C(=O)Oc2ccccc2COC(=O)c2ccc3c(c2I)OCO3)cc1OC | 128 to 130
19 | CN1CNC(=O)NC1=O | 252 to 254
20 | COc1cc(C)nc(CNC(=O)NS(=O)(=O)c2ccccc2S(=O)(=O)N(C)C)n1 | 153 to 156
21 | Cn1nnc2c(N3CCOCC3)nc(Cl)nc21 | 168
22 | O=C1c2ccccc2C(=O)c2c1cccc2N1CCC(C2CCNCC2)CC1 | 155 to 160
23 | CC12CCC=CC1=CCC1C2CCC2(C)C(c3cccnc3)=CCC12 (configuration not stated) | 110 to 112
24 | Cc1cccc(C)c1N(CCCC(=O)O)C(=O)CN(C(=O)c1ccc(Cl)cc1)c1c(C)cccc1C | 214 to 216

Row | SMILES | melting point [°C]
25 | NC(=O)c1cc(Cl)ccc1SSc1ccc(Cl)cc1C(N)=O | 278 to 282
26 | Oc1ccc(Nc2nc(NCc3ccco3)nc(Nc3ccc(F)c(F)c3)n2)cc1 | 75 to 77
27 | Cc1c(O)cccc1NC(=O)CC12CC3CC(CC(C3)C1)C2 | 211
28 | CCCCN1C(=O)NC(CO)C1=O (configuration not stated) | 93
29 | O=C(NNC(=O)C(F)(F)F)C(F)(F)F | 173 to 175
30 | O=C1c2ccccc2-c2[nH]c(=O)c(=O)[nH]c21 | 243 to 253
31 | CC(C)(C)Cc1cc(C2(N)CC2)no1 | 39 to 47
32 | CCOc1nc(O)cc(CCl)n1 | 159 to 161
33 | CCN(CC)CCC(=O)Nc1ccc2c(=O)c3ccc(NC(=O)CCN(CC)CC)cc3[nH]c2c1 | > 320
34 | COC(=O)c1ccc(/C=C\[C@@H]2C[C@@H](NS(=O)(=O)c3ccc(Cl)cc3)CN2)cc1 | 189 to 190
35 | CCCc1nc(C(C)C)c(C(=O)OCc2ccc(-c3ccccc3C(=O)C(=O)O)cc2)[nH]1 | 177 to 178
36 | CCC1SC=C(C)NC1=O (configuration not stated) | 69 to 71
37 | CC1(C)CCC(C)(C)c2c(OCc3ccc(C(F)(F)F)cc3)cc(C(O)C#Cc3ccc(C(=O)O)cc3)cc21 (configuration not stated) | 222
38 | CCCN(Cc1ccc(-c2ccccc2-c2nnn[nH]2)cc1)c1nn(C)cc1C(=O)O | 101 to 105
39 | CC(NC(=O)CBr)c1ccccc1 (configuration not stated) | 60 to 61
40 | COC(=O)/C=C/c1nccs1 | 75 to 75.5
41 | COC(=O)Cc1ccc(C(F)(F)F)cc1NC(C)=O | 92 to 94
42 | CN1OCC(=O)N(c2ccc(C(C)(C)C)cc2)C1=S | 168 to 170
43 | O=C(c1cnccn1)N1CCCC(c2ccccc2)=N1 | 98 to 100
44 | CN1CCC(c2cccc3ccc(O)cc23)CC1 | 144 to 146
45 | CC(=O)Nc1ccc(C(=O)Nc2ccc(O)cc2)cc1 | 275 to 277
46 | CCC(=O)N1c2cscc2C(=O)N(C)c2ccccc21 | 202 to 203
47 | CSCC[C@H](NC(=O)OCc1ccccc1)C(=O)[C@@H](C(N)c1ccccc1)[C@H](O)C(=O)N1C[C@@H](Cl)C[C@H]1C(=O)NC(C)(C)C (some centres not stated) | 81 to 88
48 | CCc1nc(C)cn1CO | 83.1 to 86.3

Row | SMILES | melting point [°C]
49 | Cc1noc(-c2ccccc2)c1CCC(N)=O | 149 to 151
50 | COc1ccc(CCC(N[C@@H](C)C(=O)N(CC(=O)O)C2Cc3ccccc3C2)C(=O)O)cc1OC (some centres not stated) | 160 to 165
51 | CC[C@H](C)[C@H](Nc1nc(OC)ns1)C(=O)N1CCC[C@H]1C(=O)O | 112 to 114
52 | CN(C)c1nc(N(C)C)nc(N(C)Cc2ccccc2O)n1 | 169 to 171
53 | COC(=O)c1cccc(Sc2ccc([N+](=O)[O-])cc2)c1 | 98 to 100
54 | CC(C)C(OCCc1ccc(-c2ccc(Cl)cc2)cc1)C(=O)O (configuration not stated) | 91 to 92
55 | CCOc1nc2cccc(C(=O)OC)c2n1Cc1ccc(-c2ccccc2-c2nc(=O)s[nH]2)cc1 | 211 to 212
56 | COc1ccc(NC(N)=O)c(C#N)c1OC | 198 to 200
57 | NC(=O)[C@@H]1[C@H](Nc2c(Br)cnc3[nH]c(-c4cccnc4N4CCCC4)nc23)[C@H]2C=C[C@@H]1C2 | 190
58 | COc1cc(N)c(Cl)cc1C(=O)NC1CCN(CC2CCN(C(N)=O)CC2)CC1 | 222 to 224
59 | CN(C)C=NS(=O)(=O)c1cc(CCNC(=O)C(F)(F)F)ccc1OCCOC(F)(F)F | 111 to 114
60 | CN(C)C(=O)Sc1ccccc1C(=O)c1ccccc1C#N | 130
61 | CCOC(=O)c1cn(-c2ccccc2)nc1NC=O | 135 to 136
62 | NC(=O)c1sc2nc(N3CCC(NCC(O)c4ccc5c(c4)OCO5)CC3)cc(C(F)(F)F)c2c1N (configuration not stated) | 232 to 234
63 | CCCCCCCCCCCCCCC(COC(C)=O)(COC(C)=O)NC(C)=O | 84 to 85.5
64 | CCCCN(Cc1ccc(-c2ccccc2-c2nnn[nH]2)cc1)c1ncncc1C(=O)OCOC(C)=O | 65 to 69
65 | CCOC(=O)C1=C2NC=C(C(N)=O)C(=O)N2C(C)CC1 (configuration not stated) | 251
66 | Cc1ccc(-c2c(-c3ccc(S(C)(=O)=O)cc3)cnn(CC(F)(F)F)c2=O)cc1 | 154 to 156
67 | CN1CCNCCNCCNCCNCC1 | 71 to 72.5
68 | O=c1oc2cccnc2n1CN1CCN(c2cccc(C(F)(F)F)c2)CC1 | 112 to 118
69 | Cc1c(C#N)sc2nc(-c3ccccc3)nc(N3CCN(C)CC3)c12 | 223 to 225
70 | CCOC(=O)C1=C(C)NC(C)=C(C(=O)OCC)C1c1cc2ccccc2s1 | 167 to 169
71 | C[C@H](CO)Nc1nc(SCc2ccccc2F)nc2[nH]c(=O)cnc12 | 203 to 205

The next lines start with the values.

Row | melting point [°C] | SMILES
72 | 61 to 62 | OCC(O)COc1noc2ccc(Cl)cc12 (configuration not stated)
73 | 110 to 112 | COc1ccc2c(c1)C(=O)C(Cc1cccc(N)c1)C(C)O2 (configuration not stated)
74 | 120 to 121 | CC(=O)NC(CF)COC1CCN(c2nc3ccc(OCC4CC4)cc3o2)CC1 (configuration not stated)
75 | 266 to 268 | CC1CCN(c2c(F)cc3c(=O)c(C(=O)O)cn4c3c2CCC4C)CC1 (configuration not stated)
76 | 262 to 264 | Oc1cc(Br)nnc1-c1ccc(Cl)cc1
77 | 173 to 175 | CCOC(=O)c1cn(C2CC2)c2c(F)c(NCC(O)CO)c(F)cc2c1=O (configuration not stated)
78 | 125 to 126 | CC(=O)N1Cc2cccc3c2c(cn3C)C1
79 | 85 to 87 | CCOP(=O)(OCC)C(Cc1cc(C)c(O)c(OC)c1)c1cccnc1 (configuration not stated)
80 | 257 to 262 | COC(=O)c1ccc2c(c1)CN(c1c(F)cc3c(=O)c(C(=O)O)cn4c3c1OCC4C)C2 (configuration not stated)
81 | 78 | Cc1cccc(C)c1N(C(=O)CCl)C1=CCCCC1
82 | 258 to 259 | COc1cc(Cc2n[nH]c3c2c(=O)n(-c2ccccc2)c2ncccc32)cc(OC)c1
83 | 177 to 178 | O=C(c1sc(Nc2ccccc2)c2c1CCc1cnoc1-2)N1CCOCC1
84 | 188 | COc1cc(Nc2c(C#N)cnc3cc(-c4ccc(CN5CCOCC5)s4)ccc23)c(Cl)cc1Cl
85 | 178 to 180 | CN1C(=O)CN(c2cccc(Cl)c2)NC1=O
86 | 106 to 108 | COc1ccc(Cc2cc(CCNS(=O)(=O)c3ccc(Cl)cc3)cc(CCC(=O)O)c2)cc1
87 | 93 to 94 | CCOc1ccc(-c2ccc(Cl)nn2)c(OCC2CO2)c1 (configuration not stated)

Row | melting point [°C] | SMILES
88 | 85 to 87 | Cc1c(C)c2c(c(C)c1O)CCC(C)(CCOC(=O)C(C)c1ccc(-c3ccccc3)c(F)c1)O2 (configuration not stated)
89 | 76.5 to 78 | CC(=O)Oc1cc([N+](=O)[O-])ccc1CBr
90 | 96 | COC(=O)CCCc1cc2nc(Cl)ccc2n1S(=O)(=O)c1ccc(OC)cc1
91 | 119 | COc1ccc2c(c1)c1c(n2CCBr)C(=O)CCC1
92 | 190 to 195 | CCCN1C(=O)N2CC(c3cccnc3)CN=C2c2[nH]c(C3CCCC3)nc21 (configuration not stated)
93 | 169 to 171 | CN(C)C(=O)NCc1cccc2c1CN(C1CCC(=O)NC1=O)C2=O (configuration not stated)
94 | 137 to 138 | O=C(O)C1CCc2cc(O)ccc21 (configuration not stated)
95 | 111 to 116 | COc1cc(C)cc2c1C(N1CC[N+]([O-])(C(=O)Cc3ccncc3)CC1)c1ncc(Br)cc1CC2 (single isomer, unassigned; (-))
96 | 160 to 164 | COc1ccc(N/C(SC)=C(\C#N)C(N)=O)cc1O
97 | 200 to 201 | O=C(NCc1cccc(F)c1)NNC(=O)c1ccc2c(c1)CCO2
98 | 180 | COC(=O)C1CCN(S(=O)(=O)c2ccc(Cl)c(COc3cccc4c(-n5ccnc5)cc(C)nc34)c2Cl)C1 (configuration not stated)
99 | 149 to 150 | Cc1c(CC(=O)O)oc2ccc(Cc3ccccc3)cc12
100 | 176 to 178 | CCOC(=O)Cc1sc(S)nc1-c1ccc(Cl)cc1
101 | 118 to 122 | COc1ccc(-c2nc(C(=O)N3CCOCC3)sc2-c2ccc(OC)cc2)cc1
102 | 243 to 245 | CCOc1ccc([N+](=O)[O-])c(C=C2NC(=O)NC2=O)c1
